# In paper PMC11809512, “Looking for approved-medicines to be repositioned as anti-Trypanosoma cruzi agents. Identification of new chemotypes with good individual- or in combination-biological behaviours” (Memórias do Instituto Oswaldo Cruz, 2025):
# Like-named read-outs stand apart in the source and are kept apart here.
# Key:
# [1] = system: epimastigotes of T. cruzi (Tulahuen 2 strain, DTU Tc VI); test: Screening / IC50 against T. cruzi epimastigotes (growth, absorbance 610 nm, 5 days); format: cell-based, Trypanosoma cruzi; details: for SIepi: SIepi = IC50,J774.1A/IC50,epi; for IC50: Trypanosoma cruzi, 120 h, read-out: IC50,epi; for anti-epimastigote activity in the initial screening (in words): 25 µM or 100 µg/mL, cut-off more than 65% inhibition
# Method: (§1) Screening - Entities, dissolved in dimethylsulfoxide (DMSO, Sigma) before use and then diluted in a culture milieu, were firstly tested against epimastigotes of T. cruzi [Tulahuen 2 strain, discrete typing unit (DTU) Tc VI] as previously described.[14] ^, [15] […] The system was incubated at 28 °C for five days and to assess cell proliferation, cell density was monitored at 610 nm at time 0 (Ap0) and five days post incubation (Ap). All measures were normalised to the control population at day 0 (Ac0) and at day 5 (Ac5). Control parasites were incubated with 0.4% DMSO, corresponding to the highest DMSO concentration of the well. The percentage of parasite inhibition was calculated as: […]. This assay was independently performed three times. […] Secondly,[16] Vero (ATCC® CCL-81™) cells were infected with T. cruzi metacyclic trypomastigotes from 15 days old Dm28 clone (DTU Tc I) epimastigote cultures. Subsequently, the trypomastigotes harvested from this culture were used to infect further Vero cell cultures at a multiplicity of infection of 10. These trypomastigote-infected Vero cell cultures were incubated at 37 °C in humidified air and 5% CO2 for five to seven days. After this time, cellular trypomastigotes were collected from the supernatant by centrifugation at 3,000 × g for 10 min. The trypomastigote-containing pellets were resuspended in RPMI media supplemented with 5% foetal bovine serum (FBS) and penicillin/streptomycin at a final density of 1 × 10^8 parasites/mL. For viability assays, 1 × 10^7 trypomastigotes were seeded in black 96 well plates in RPMI and incubated with increasing concentrations of the entities under study for 24 h. Viability was analysed using resazurin, which is reduced to highly fluorescent resorufin. 50 μL of resazurin solution (2 mg/mL in RPMI) were added to each well and incubated for 4 h at 37 °C. Fluorescence (excitation 530 nm / emission 590 nm) was measured in a Thermo Scientific Varioskan® Flash Multimode plate spectrofluorimeter instrument. Untreated parasites were used as negative controls (100% of viability). […] Thirdly, for infection persistence analysis,[16] trypomatigotes Vero cells (at a multiplicity of infection of 10) growing in RPMI were trypsinised and replated in 24-wll plates (2-3 × 10^5 cells/well). […] After 24 h of incubation, cells were washed with phosphate-buffered saline (PBS), fixed with 4% paraformaldehyde, and stained with DAPI. Infected cells and amastigotes per cell were counted from randomly selected fields (400 cells per conditions). Two independent infections with trypomastigotes pre-treated with entities by two independent technicians were analysed. The percentage of uninfected Vero cells over total cells, as well as the percentage of decrease in the number of amastigotes per infected cell, was counted for each studied compound concentration tested and normalised against control untreated parasites.
# J774.1A macrophages = test: Cytotoxicity on macrophages (MTT, 48 h); format: cell-based; details: Macrophage, read-out: IC50,J774.1A
# Method: Cytotoxicity - J774.1A macrophages (ATCC® TIB67™) were grown in DMEM milieu supplemented with 10% […] FBS, 1% L-glutamine, 1% streptomycin, and 100 units/mL penicillin. Cell viability was assessed using the MTT protocol. […] Cells were grown in 96-well plates (5 × 10^4 cells/well) for 24 h. Cultures were carried out at 37 °C in a humidified atmosphere with 5% CO2 and incubated with the compounds at different concentrations for 48 h. After incubation, the milieu was removed, and the cells were treated with 100 μL of 0.4 mg/mL MTT for 4 h at 37 °C. Subsequently, 100 μL of DMSO was added to the mixture. The solubilised formazan product was quantified through absorbance measurements at 570 nm. The absorbance values were transformed to the percentage of cytotoxicity compared to the negative controls.
# epimastigote T. cruzi = test: Anti-epimastigote activity in modified milieu (excess Ca2+, glutamate or N-acetyl-L-cysteine, 1 mM); format: cell-based; details: Trypanosoma cruzi; for inhibition at 25 µM: read-out: Percentage of growth inhibition at 25 µM
# Method: Three controls of untreated parasites and containing excess of calcium (II), glutamate or N-acetyl-L-cysteine (1 mM) were included. All treated and untreated wells contain no more than 0.4% of DMSO. Controls were used to calculate the relative proliferation in the treatment wells. Assays were performed in triplicate for all cases.
# [2] = system: amastigote forms of T. cruzi in Vero cells (Dm28 clone, DTU Tc I); format: cell-based; details: 24 h
# Method: as §1
# The number of amastigotes per cell as well as the number of infected cells was then counted.
# [3] = system: Trypanosoma cruzi trypomastigotes (Dm28c); test: Trypomastigote viability (resazurin, 24 h); format: cell-based; details: fixed concentrations, Fig. 1
# Method: Screening - Entities, dissolved in dimethylsulfoxide (DMSO, Sigma) before use and then diluted in a culture milieu, were firstly tested against epimastigotes of T. cruzi [Tulahuen 2 strain, discrete typing unit (DTU) Tc VI] as previously described.[14] ^, [15] […] The system was incubated at 28 °C for five days and to assess cell proliferation, cell density was monitored at 610 nm at time 0 (Ap0) and five days post incubation (Ap). All measures were normalised to the control population at day 0 (Ac0) and at day 5 (Ac5). Control parasites were incubated with 0.4% DMSO, corresponding to the highest DMSO concentration of the well. The percentage of parasite inhibition was calculated as: (Ap - Ap0)/(Ac5 - Ac0) × 100. This assay was independently performed three times. […] Secondly,[16] Vero (ATCC® CCL-81™) cells were infected with T. cruzi metacyclic trypomastigotes from 15 days old Dm28 clone (DTU Tc I) epimastigote cultures. […] Viability was analysed using resazurin, which is reduced to highly fluorescent resorufin. […] Fluorescence (excitation 530 nm / emission 590 nm) was measured in a Thermo Scientific Varioskan® Flash Multimode plate spectrofluorimeter instrument. […] Infected cells and amastigotes per cell were counted from randomly selected fields (400 cells per conditions). Two independent infections with trypomastigotes pre-treated with entities by two independent technicians were analysed. […]
# [4] = epimastigotes Tulahuen 2, 5 days
# [5] = Ca2+ 1 mM, read-out: IC50,epi with excess of Ca2+
SMILES,SIepi [1],"IC50 [1, 4] [µM]","IC50 (J774.1A macrophages; macrophages, MTT) [µM]",also measured
"O=C(Cn1ccnc1[N+](=O)[O-])NCc1ccccc1 [Bnz, Benznidazole]",50.2,4.93,247,
"C[C@H]1c2cccc(O)c2C(=O)C2=C(O)[C@]3(O)C(=O)C(C(N)=O)=C(O)[C@@H](N(C)C)[C@@H]3[C@@H](O)[C@@H]21 [Dox, Doxycycline]",1.24,19.1,23.8,
"O=C1CN(/N=C/c2ccc([N+](=O)[O-])o2)C(=O)N1 [Nitrof, Nitrofurantoin]",4.59,13.3,61.1,
"NCC1(CC(=O)O)CCCCC1 [Gaba, Gabapentin]",,,,"IC50 (epimastigote T. cruzi; read-out: IC50,epi with excess of Ca2+): > 25 µM; IC50 (epimastigote T. cruzi; read-out: IC50,epi with excess of glutamate): > 25 µM; IC50 ([1]; TULAHUEN): 6.01 µM; IC50 (J774.1A macrophages): 19.1 µM"
"CN(C/C=C/C#CC(C)(C)C)Cc1cccc2ccccc12 [Terb, Terbinafine]",3.05,21.4,65,%dnac: percentage of decrease in the number of amastigotes per treated Vero cell respect to control ([2]; 6.25 µM): 20%; %ucell: percentage of uninfected Vero cells with amastigotes respect to untreated parasites ([2]; 6.25 µM): 4%; %dnac: percentage of decrease in the number of amastigotes per treated Vero cell respect to control ([2]; 12.5 µM): 23%; %ucell: percentage of uninfected Vero cells with amastigotes respect to untreated parasites ([2]; 12.5 µM): 15%
"CC(=O)N1CCN(c2ccc(OCC3COC(Cn4ccnc4)(c4ccc(Cl)cc4Cl)O3)cc2)CC1 (centres unmarked) [Ket, Ketoconazole]",2.60,5.13,13.3,
"CCC(C)(C)C(=O)O[C@H]1C[C@@H](C)C=C2C=C[C@H](C)[C@H](CC[C@@H]3C[C@@H](O)CC(=O)O3)[C@H]21 [Simv, Simvastatin]",0.88,7.36,6.5,
"NC(=O)NN=C1C=Cc2ccccc2C1=O [Naft, Naftazone]",135.7,0.75,102,"anti-trypomastigote activity (in words) [3]: excellent cytotoxic agent for this form of the parasite; IC50 (epimastigote T. cruzi; [5]): 2.8 µM; IC50 (epimastigote T. cruzi; NAC 1 mM, read-out: IC50,epi with excess of N-acetyl-L-cysteine (NAC)): 1.9 µM; IC50 (epimastigote T. cruzi; glutamate 1 mM, read-out: IC50,epi with excess of glutamate): 13.5 µM; %dnac: percentage of decrease in the number of amastigotes per treated Vero cell respect to control ([2]; 6.25 µM): 0%; %ucell: percentage of uninfected Vero cells with amastigotes respect to untreated parasites ([2]; 6.25 µM): 0%; %dnac: percentage of decrease in the number of amastigotes per treated Vero cell respect to control ([2]; 12.5 µM): 0%; %ucell: percentage of uninfected Vero cells with amastigotes respect to untreated parasites ([2]; 12.5 µM): 0%; %dnac: percentage of decrease in the number of amastigotes per treated Vero cell respect to control ([2]; 25 µM): 24%; %ucell: percentage of uninfected Vero cells with amastigotes respect to untreated parasites ([2]; 25 µM): 15%"
"CS(=O)(=O)CCNCc1ccc(-c2ccc3ncnc(Nc4ccc(OCc5cccc(F)c5)c(Cl)c4)c3c2)o1 [Lapa, Lapatinib]",,16.6,7.6,
"CCOC(=O)N1CCC(=C2c3ccc(Cl)cc3CCc3cccnc32)CC1 [Lorat, Loratadine]",8.21,0.95,7.8,
"CCN(CC)CCNC(=O)c1c(C)[nH]c(/C=C2\C(=O)Nc3ccc(F)cc32)c1C [Sun, Sunitinib]",,,,anti-epimastigote activity in the initial screening (in words) [1]: did not display anti-T. cruzi activities in the assayed conditions
"C#Cc1cccc(Nc2ncnc3cc(OCCOC)c(OCCOC)cc23)c1 [Erlo, Erlotinib]",,,,anti-epimastigote activity in the initial screening (in words) [1]: did not display anti-T. cruzi activities in the assayed conditions
"CCOC(=O)C1=C(COCCN)NC(C)=C(C(=O)OC)C1c1ccccc1Cl (centres unmarked) [Amlod, Amlodipine]",7.00,13.7,95.7,IC50 (epimastigote T. cruzi; [5]): ~25 µM
"CC1CS(=O)(=O)CCN1/N=C/c1ccc([N+](=O)[O-])o1 (centres unmarked) [Nfx, nifurtimox]",,,,inhibition at 25 µM (epimastigote T. cruzi; with Ca2+ (1 mM)): 61%; inhibition at 25 µM (epimastigote T. cruzi; with Glu (1 mM)): 55%; inhibition at 25 µM (epimastigote T. cruzi; with NAC (1 mM)): 20%; inhibition at 25 µM (epimastigote T. cruzi; without Ca2+): 70%; inhibition at 25 µM (epimastigote T. cruzi; without Glu): 70%; inhibition at 25 µM (epimastigote T. cruzi; without NAC): 74%
